No end group written: not given here.
Test system: CEA CTL T-Vac8
Assay: CTL cytotoxicity screening of the CAP1 analog panel, 111In release from peptide-incubated C1R-A2 cells
Format: cell-based, human
Settings: peptide at 1, 0.1 and 0.01 µg/ml, E:T=1.45:1, isotope release after 4 hours

Row | Molecule | activation of T-Vac8 cytotoxicity (lysis of peptide-incubated targets)
1 | CC(C)C[C@H](NC(=O)[C@H](CC(N)=O)NC(=O)[C@H](CC(C)C)NC(=O)[C@H](CC(=O)O)NC(=O)[C@H](C)NC(=O)CNC(=O)[C@H](CO)NC(=O)[C@H](CC(C)C)NC(=O)[C@@H](N)Cc1ccc(O)cc1)C(=O)O [CAP1-6D] | activated T-Vac8 cytotoxicity and seemed to be equal to or better than CAP1
2 | CC[C@H](C)[C@H](NC(=O)[C@H](CC(N)=O)NC(=O)[C@H](C)NC(=O)CNC(=O)[C@H](CO)NC(=O)[C@H](CC(C)C)NC(=O)[C@@H](N)Cc1ccc(O)cc1)C(=O)N[C@@H](CC(N)=O)C(=O)N[C@@H](CC(C)C)C(=O)O [CAP1-7I] | appeared to be active
3 | YLSGACLNL [CAP1-6C] | activated T-Vac8 cytotoxicity and seemed to be equal to or better than CAP1
4 | YLSGFNLNL [CAP1-5F] | provided stimulation, albeit at reduced levels compared to CAP1 itself
5 | YLSGINLNL [CAP1-5I] | provided stimulation, albeit at reduced levels compared to CAP1 itself
6 | YLSGSNLNL [CAP1-5S] | provided stimulation, albeit at reduced levels compared to CAP1 itself

Reference: patent publication EP1447414B1, “Antagonist peptides of carcinoembryonic antigen (CEA)” (THE GOVERNMENT OF THE UNITED STATES OF AMERICA, as …, priority 1997, dated 2007)
